The numbers were not newly measured in patent US8778840B2, “Soluble liquid formulations of quinclorac ammonium salts” (BASF SE, priority 2007, dated 2014), which cites them from elsewhere.

For the data set the following is noted: pH 7 at 20° C.

For `O=C(O)c1c(Cl)ccc2cc(Cl)cnc12` [Quinclorac, 3,7-dichloro-8-quinolinecarboxylic acid], the solubility in water is reported as 0.065 mg/kg.
